Data from ChEMBL document CHEMBL1201862, “PubChem BioAssay data set” (2004).
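These data come from cells grown in 96-well plates and exposed to compound for 48 hours at five concentrations. The concentration for 50% growth inhibition is given as GI50.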 Activity calls are given as the source filed them. No stated cut-off is given here; in the data, active = GI50 up to about 1.1 µM and inactive = higher.

How the values were obtained:
Assay in all cases: inhibition of tumour cell growth, NCI panel, 48 h
[1] = system: MOLT-4
[2] = system: UACC-62
[3] = system: NCI-H226
[4] = system: A498
[5] = system: NCI-H23
[6] = system: NCI/ADR-RES
[7] = system: UACC-257
[8] = system: SK-OV-3
[9] = system: SK-MEL-28
[10] = system: TK-10
[11] = system: IGROV-1
[12] = system: OVCAR-8
[13] = system: HOP-92
[14] = system: SK-MEL-2
[15] = system: SN12C
[16] = system: KM12
[17] = system: ACHN
[18] = system: OVCAR-5
[19] = system: SF-268
[20] = system: Malme-3M

Measured: GI50

COC(=O)[C@]12CC[C@H]3CN(C(=O)OCc4ccccc4)[C@H]([C@H]31)[C@H](c1ccccc1)N2
inactive: [1] 33 µM | [2] 55 µM | [3] 86.7 µM | [4] 80 µM | [5] 77.4 µM | [6] 64.6 µM | [7] 39.5 µM | [8] > 100 µM | [9] > 100 µM | [10] > 100 µM | [11] > 100 µM | [12] 78.9 µM | [13] 72.3 µM | [14] 59.7 µM | [15] > 100 µM | [16] 72.6 µM | [17] 92 µM | [18] > 100 µM | [19] > 100 µM

COc1ccc(CNc2nc3cc(C(F)(F)F)ccc3nc2C(=O)O)cc1
inactive: [1] 21.8 µM | [2] 21.9 µM | [3] 40 µM | [4] 21.5 µM | [5] 24.5 µM | [6] 24.3 µM | [7] 24.8 µM | [8] 40.4 µM | [9] 37.3 µM | [11] 27.4 µM | [12] 32.3 µM | [13] 20.3 µM | [14] 23.1 µM | [15] 21.4 µM | [16] 22.4 µM | [17] 29.4 µM | [18] 28.4 µM

C=C(Br)CN(CC(=C)Br)C(C)=O
inactive: [1] > 100 µM | [2] > 100 µM | [3] > 100 µM | [4] > 100 µM | [5] > 100 µM | [6] > 100 µM | [7] > 100 µM | [8] > 100 µM | [20] > 100 µM | [9] > 100 µM | [10] > 100 µM | [11] > 100 µM | [12] > 100 µM | [14] > 100 µM | [15] > 100 µM | [16] > 100 µM | [17] > 100 µM | [18] > 100 µM | [19] > 100 µM

CC(C)C1=CC2=C(C(=O)C1=O)C13CCCC(C)(C)C1CC2OC3=O (stereo not given)
inactive: [1] 6.11 µM | [2] 13.4 µM | [3] 18.6 µM | [4] 27.2 µM | [5] 26.8 µM | [6] 18.9 µM | [7] 23.9 µM | [8] 59.3 µM | [9] 14.1 µM | [10] 14.8 µM | [11] 17.3 µM | [12] 19.2 µM | [13] 19 µM | [14] 21.7 µM | [15] 21.4 µM | [16] 31.8 µM | [17] 19.1 µM | [18] 25.4 µM | [19] 22 µM

CC(C)N(C(=O)C12C3(C(=O)OC(C)(C)C)C4C5(C#N)C3C1(C(=O)OC(C)(C)C)C5C42C(=O)OC(C)(C)C)C(C)C (stereo not given)
inactive: [1] 13.6 µM | [2] 40.6 µM | [4] > 100 µM | [5] > 100 µM | [6] 76.4 µM | [7] 28.9 µM | [9] 29.4 µM | [10] > 100 µM | [11] > 100 µM | [12] > 100 µM | [13] 8.32 µM | [14] > 100 µM | [15] > 100 µM | [16] > 100 µM | [17] > 100 µM | [18] > 100 µM | [19] > 100 µM

C=C(C)OCOCCOC
inactive: [1] > 100 µM | [2] > 100 µM | [3] > 100 µM | [4] > 100 µM | [5] > 100 µM | [6] > 100 µM | [7] > 100 µM | [8] > 100 µM | [20] > 100 µM | [9] > 100 µM | [10] > 100 µM | [11] > 100 µM | [12] > 100 µM | [14] > 100 µM | [15] > 100 µM | [16] > 100 µM | [17] > 100 µM | [18] > 100 µM | [19] > 100 µM
